The source made the active and inactive calls. The calls are words filed in the database; no cut-off is given here.

The target of series [1] is T1, Prostaglandin G/H synthase 1 (Ovis aries) (UniProt P05979).
T1 sequence (whole entry): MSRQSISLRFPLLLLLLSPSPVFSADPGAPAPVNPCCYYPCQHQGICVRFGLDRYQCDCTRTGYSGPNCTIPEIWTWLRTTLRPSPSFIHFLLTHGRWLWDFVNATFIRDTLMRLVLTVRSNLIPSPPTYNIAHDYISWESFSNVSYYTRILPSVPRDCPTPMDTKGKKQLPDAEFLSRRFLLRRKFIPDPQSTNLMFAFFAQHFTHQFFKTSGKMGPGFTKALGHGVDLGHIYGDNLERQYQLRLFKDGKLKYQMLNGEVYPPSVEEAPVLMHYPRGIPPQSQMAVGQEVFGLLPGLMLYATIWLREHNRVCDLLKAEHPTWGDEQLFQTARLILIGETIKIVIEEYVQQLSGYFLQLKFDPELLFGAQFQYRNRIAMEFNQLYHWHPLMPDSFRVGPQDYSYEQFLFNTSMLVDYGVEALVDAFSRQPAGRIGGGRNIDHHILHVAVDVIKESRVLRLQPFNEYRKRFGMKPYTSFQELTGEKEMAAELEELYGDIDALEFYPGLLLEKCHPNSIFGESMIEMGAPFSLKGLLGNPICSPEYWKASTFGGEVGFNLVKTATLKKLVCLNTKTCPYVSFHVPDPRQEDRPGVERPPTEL
In words: Inhibition of sheep COX1 at 10 uM using arachidonic acid as substrate preincubated for 15 mins followed by substrate addition for 2 mins by Cayman based fluorescence assay.

The subject of series [2] is LNCaP. The series can be described thus: Induction of cell cycle arrest in human LNCAP cells assessed as accumulation at greater G2 phase at 2.5 uM after 24 hrs by propidium iodide staining based FACS analysis (reference value: 0.20%). It counts as functional. A general note: In flow cytometry, cells or beads pass a laser one at a time.
The test system of series [3] is LNCaP. The series can be described thus: Inhibition of class 1 HDAC in human LNCAP cells assessed as acetylated histone H4 accumulation after 24 hrs by Western blot analysis. Type of series: cell-based. A general note: A western blot detects proteins with antibodies after separation by electrophoresis.
Another series has as its target Histone deacetylase 2 (Homo sapiens, UniProt Q92769). In words: Inhibition of HDAC2 (unknown origin) after 24 hrs by SAMDI mass spectroscopic analysis.
The next series addresses Histone deacetylase 3 (Homo sapiens, UniProt O15379). The series can be described thus: Inhibition of HDAC3 (unknown origin) after 5 hrs by SAMDI mass spectroscopic analysis.
In series [4] the test system is LNCaP. In words: Inhibition of HDAC in human LNCAP cells assessed as down regulation of COX2 expression at 2 to 10 uM after 24 hrs by Western blot analysis. Type of series: cell-based.
In series [5] the target is T2, Prostaglandin G/H synthase 1 (Ovis aries, UniProt P05979).
T2 sequence (P05979 whole entry): T1 sequence (whole entry)
The series can be described thus: Inhibition of sheep COX1 using arachidonic acid as substrate preincubated for 15 mins followed by substrate addition for 2 mins by Cayman based fluorescence assay.

Series [6] addresses T3, Prostaglandin G/H synthase 2 (Homo sapiens, UniProt P35354).
T3 sequence (P35354 whole entry): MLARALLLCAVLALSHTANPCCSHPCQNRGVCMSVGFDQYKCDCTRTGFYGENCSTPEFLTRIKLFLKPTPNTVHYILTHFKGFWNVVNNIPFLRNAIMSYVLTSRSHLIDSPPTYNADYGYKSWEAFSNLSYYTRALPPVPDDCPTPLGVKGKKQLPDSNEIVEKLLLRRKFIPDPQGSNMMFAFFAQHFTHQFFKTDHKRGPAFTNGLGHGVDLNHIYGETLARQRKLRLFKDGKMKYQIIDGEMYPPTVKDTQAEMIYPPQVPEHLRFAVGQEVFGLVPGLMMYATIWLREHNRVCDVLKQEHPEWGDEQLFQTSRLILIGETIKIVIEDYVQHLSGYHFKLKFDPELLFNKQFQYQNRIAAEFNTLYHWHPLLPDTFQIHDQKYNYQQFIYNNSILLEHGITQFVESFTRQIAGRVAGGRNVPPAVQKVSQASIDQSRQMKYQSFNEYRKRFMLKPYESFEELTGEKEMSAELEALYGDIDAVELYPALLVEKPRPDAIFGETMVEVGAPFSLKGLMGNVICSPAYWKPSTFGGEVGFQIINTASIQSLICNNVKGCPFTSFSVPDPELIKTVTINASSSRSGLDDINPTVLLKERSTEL
In words: Inhibition of recombinant human COX2 using arachidonic acid as substrate preincubated for 15 mins followed by substrate addition for 2 mins by Cayman based fluorescence assay.

The target in the next series is Histone deacetylase 1 (Homo sapiens, UniProt Q13547). The series can be described thus: Inhibition of HDAC1 (unknown origin) after 24 hrs by SAMDI mass spectroscopic analysis.
Sequence of Histone deacetylase 1 (Q13547 whole entry): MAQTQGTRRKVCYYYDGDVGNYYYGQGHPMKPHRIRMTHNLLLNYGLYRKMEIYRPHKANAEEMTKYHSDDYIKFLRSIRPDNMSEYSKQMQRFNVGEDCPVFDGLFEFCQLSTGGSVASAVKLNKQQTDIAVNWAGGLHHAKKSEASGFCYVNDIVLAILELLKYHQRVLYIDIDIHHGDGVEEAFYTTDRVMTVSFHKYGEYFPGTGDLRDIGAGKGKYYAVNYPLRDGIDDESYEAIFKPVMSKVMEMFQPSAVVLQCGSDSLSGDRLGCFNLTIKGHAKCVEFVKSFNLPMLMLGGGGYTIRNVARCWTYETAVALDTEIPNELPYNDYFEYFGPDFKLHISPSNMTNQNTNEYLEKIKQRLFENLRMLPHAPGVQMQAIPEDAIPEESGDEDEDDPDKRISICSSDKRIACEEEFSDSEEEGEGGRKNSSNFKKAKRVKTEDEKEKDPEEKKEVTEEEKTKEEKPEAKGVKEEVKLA
Series [7] deals with LNCaP. The series can be described thus: Induction of cell cycle arrest in human LNCAP cells assessed as accumulation at lesser G1 phase at 2.5 uM after 24 hrs by propidium iodide staining based FACS analysis (reference value: 1.59%). It counts as functional.
Series [8] can be described thus: Cytotoxicity against human LNCAP cells assessed as cell growth inhibition after 72 hrs by MTT assay. Type of series: functional, cell-based. In general terms: Formazan colour is commonly taken as a measure of viable cells.
Series [9] is described as follows: Cytotoxicity against human HCT116 cells assessed as cell growth inhibition after 72 hrs by MTT assay. It counts as functional, cell-based. Conditions: HCT-116, 72 h.
Series [10] is described as follows: Cytotoxicity against African green monkey Vero cells assessed as cell growth inhibition after 72 hrs by MTT assay. Type of series: toxicity, cell-based. Conditions: African green monkey (Chlorocebus sabaeus).
The test system of series [11] is LNCaP. The series can be described thus: Induction of cell cycle arrest in human LNCAP cells assessed as accumulation at S phase at 2.5 uM after 24 hrs by propidium iodide staining based FACS analysis (reference value: […]). It counts as functional.
Series [12] has as its system LNCaP. The series can be described thus: Inhibition of HDAC in human LNCAP cells assessed as down regulation of androgen receptor expression after 24 hrs by Western blot analysis. It counts as cell-based.
Series [13] has as its system LNCaP. The series can be described thus: Inhibition of HDAC in human LNCAP cells assessed as down regulation of COX2 expression at 2 uM after 24 hrs by Western blot analysis. It counts as cell-based.
For series [14], the system named is LNCaP. The series can be described thus: Induction of cell cycle arrest in human LNCAP cells assessed as accumulation at G2 phase at 2.5 uM after 24 hrs by propidium iodide staining based FACS analysis (reference value: 1.08%). Type of series: functional.
Series [15] in a line: Cytotoxicity against human A549 cells assessed as cell growth inhibition after 72 hrs by MTT assay. Conditions: A549, 72 h. It counts as functional, cell-based.

Sequence of Histone deacetylase 3 (O15379 whole entry): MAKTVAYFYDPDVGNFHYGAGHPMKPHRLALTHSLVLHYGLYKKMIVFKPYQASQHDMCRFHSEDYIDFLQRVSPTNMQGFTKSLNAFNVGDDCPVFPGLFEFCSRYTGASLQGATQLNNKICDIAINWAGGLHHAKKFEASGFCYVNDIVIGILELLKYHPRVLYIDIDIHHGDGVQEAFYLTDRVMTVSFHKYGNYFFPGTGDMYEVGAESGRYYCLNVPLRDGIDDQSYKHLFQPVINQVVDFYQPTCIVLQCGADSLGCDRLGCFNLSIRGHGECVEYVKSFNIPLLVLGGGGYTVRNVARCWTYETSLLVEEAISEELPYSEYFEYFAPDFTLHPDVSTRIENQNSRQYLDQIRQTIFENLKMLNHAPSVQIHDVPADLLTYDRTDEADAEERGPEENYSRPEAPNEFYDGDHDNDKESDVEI
Sequence of Histone deacetylase 2 (Q92769 whole entry): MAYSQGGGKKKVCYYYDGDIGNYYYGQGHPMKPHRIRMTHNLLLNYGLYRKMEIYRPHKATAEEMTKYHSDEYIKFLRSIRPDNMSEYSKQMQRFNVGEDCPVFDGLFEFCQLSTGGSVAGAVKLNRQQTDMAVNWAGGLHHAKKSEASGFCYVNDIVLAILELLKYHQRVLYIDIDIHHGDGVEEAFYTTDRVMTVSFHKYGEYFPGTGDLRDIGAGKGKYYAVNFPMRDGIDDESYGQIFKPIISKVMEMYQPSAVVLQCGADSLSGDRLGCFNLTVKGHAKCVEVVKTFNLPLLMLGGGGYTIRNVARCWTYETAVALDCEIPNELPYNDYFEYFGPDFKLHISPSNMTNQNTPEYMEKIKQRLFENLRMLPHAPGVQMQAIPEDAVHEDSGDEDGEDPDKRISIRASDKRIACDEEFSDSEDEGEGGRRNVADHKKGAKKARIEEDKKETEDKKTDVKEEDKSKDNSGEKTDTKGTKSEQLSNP

Consider `COc1ccc2c(c1)c(CC(=O)NCCCCCCC(=O)NO)c(C)n2C(=O)c1ccc(Cl)cc1`, for which the values for the inhibition (in series [1]; in the series with LNCaP [3]) were 22.8% and “Dose-dependent effect”, respectively. In addition, the Activity in the series on LNCaP [2] was determined as 0.35%; with LNCaP [7] it was 1.95%. Moreover, the 50% inhibitory concentration (IC50) – broadly, the concentration needed to halve the response being measured – at Histone deacetylase 2 was determined as 854 nM; against Histone deacetylase 3 it was 356 nM; in [5], 21 µM; in series [6], 330 nM; against Histone deacetylase 1, 980 nM. The inhibition (usually the drop in the measured response relative to a control, in per cent) in the series with LNCaP [4] was “Active”.
As to `Cc1ccc(-c2cc(C(F)(F)F)nn2-c2ccc(S(=O)(=O)NCCCCCCC(=O)NO)cc2)cc1`, the inhibition in series [1] is 61.4%; with LNCaP [3] it was “Dose-dependent effect”; in the series on LNCaP [12], “Dose-dependent effect”. Moreover, the Activity is recorded as 1.67% in the series with LNCaP [2], 31.7% in the series on LNCaP [11], 1.4% in the series with LNCaP [14] and -0.32% with LNCaP [7]. Also, the half-inhibitory concentration (IC50) in [8] stood at 2190 nM; in [9] it was 3.38 µM; against Histone deacetylase 2, 4050 nM; on Histone deacetylase 3, 424 nM; in series [5], 3.57 µM; in [6], 300 nM. The results for the half-maximal inhibitory concentration (IC50) (at Histone deacetylase 1; in [15]) were 1030 nM and 8 µM, respectively. Also, the concentration for half-maximal inhibition (IC50) at 72 h in [10] came out at 5.53 µM. In addition, the inhibition result in the series on LNCaP [13] was “Active”.

(Values after ChEMBL document CHEMBL3875218, “Bifunctional conjugates with potent inhibitory activity towards cyclooxygenase and histone deacetylase” (Bioorg Med Chem, 2017).)
